Assay results taken from patent publication US11091476B2, “Protein kinase inhibitors, preparation method and medical use thereof” (Gan & Lee Pharmaceuticals, priority 2015, dated 2021).

Assays:
CDK6/CyclinD3 = CDK6/CyclinD3 (Homo sapiens (Human), UniProt Q00534); assay: CDK kinase inhibitory activity, ADP-Glo Kinase Assay, CDK6/CyclinD3; format: biochemical; conditions: for CDK1/CDK6: ratio of IC50s, selectivity for CDK6 over CDK1
Protocol: (§1) Measurement of CDK kinase inhibitory activity of the compounds of this disclosure.
(§2) In vitro inhibitory effect of the compounds of the disclosure on CDK (CDK1, CDK4 and CDK6) kinase activity was tested by the following method.
(§3) 1.1 Instrument and Kit Information
(§4) 1.2 Experimental Preparation • 1.2.1 Preparation of Kinase Reaction Buffer I: The 5×Reaction Buffer A (Promega; V307A-C) provided in the kit was mixed and diluted with MILLI-Q® H2O and 0.1 M DTT (dithiothreitol) to give 4× kinase buffer, and then MILLI-Q® H2O was further added to finally formulate the solution into 1× Kinase buffer.
(§5) 1 μl of 10 mM standard substance stock solution was taken and added to 9 μl of kinase reaction buffer I and mixed well; then 90 μl of kinase reaction buffer I was added and mixed well; then 100 μl of kinase reaction buffer I was added and mixed well. The final concentration was 50 μM. • b. 40 μl of kinase reaction buffer II was added into B2 to B10 of a 96-well plate, and 50 μl of the above solution was added into B1; • c. 10 μl of solution was taken from well B1, added into B2, and mixed well; then 10 μl of the resulting solution was taken and added into B3, and dilution was carried out in sequence to B9, so as to obtain control solutions that are diluted by 5-fold sequentially. • (2) Preparation of test compound solution: • a. Test compound solutions at a certain concentration were taken, respectively, diluted with kinase reaction buffer I to a final concentration of 50 μM compound solution; • b. 40 μl of kinase reaction buffer II was added into H2 to H10 of the 96-well plate; and 50 μl of the above solution was added into H1; • c. 10 μl of solution was taken from well H1, added into H2, and mixed well; then 10 μl of the resulting solution was taken and added into H3, and dilution was carried out in sequence to H9, so as to obtain test compound solutions that are diluted by 5-fold sequentially. • 1.2.4 Preparation of a mixed solution of reaction substrate and ATP: • a. Preparation of ATP solution: • 200 μl of 0.1 mM ATP solution: 2 μl of 10 mM ATP was added to 198 μl of kinase reaction buffer I; • 300 μl of 50 μM ATP solution: 150 μl of kinase reaction buffer I was added to 150 μl of the above 0.1 mM ATP solution; • b. Preparation of 300 μl of reaction substrate solution: • 150 μl 1 μg/μl reaction substrate stock solution was added to 150 μl kinase reaction buffer I, and mixed well; • c. The above a/b solutions were mixed to obtain mixed solutions, respectively.
(§6) 1.3 Experimental process: • 1.3.1: 2 μl of compound solutions of various concentrations were taken, added to a 384-well plate, and centrifuged 3 minutes; • 1.3.2: 4 μl of kinase solution was added to each well, centrifuged at 5000 rpm and 18° C. for 10 minutes, and shaken on a plate shaker for 10 minutes; • 1.3.3: 4 μl of mixed solution of substrate and ATP was added to each well, centrifuged at 5000 rpm and 18° C. for 10 minutes, and shaken on a plate shaker at 37° C. for 90 minutes; • 1.3.4: The 384-well plate was taken out, and allowed to stand to room temperature; • 1.3.5: 10 μl of ADP-GLO™ reagent was added to each well, centrifuged at 5000 rpm and 18° C. for 18 minutes, and shaken on a plate shaker at 25° C. for 40 minutes, and then the reaction was stopped; • 1.3.6: 20 μl of kinase detection reagent was added to each well, centrifuged at 5000 rpm and 18° C. for 10 minutes, and shaken on a plate shaker at 25° C. for 30 minutes; and • 1.3.7: M1000pro MICROPLATE READER was used to read […] values.
(§7) The inhibition rate of each compound at each concentration point was calculated by the formula as follows and curve fitting was performed by GraphPad Prism 5 software to obtain the IC50 value.

CDK1/CyclinA2 = CDK1/CyclinA2 (Homo sapiens (Human), UniProt P06493); assay: CDK kinase inhibitory activity, ADP-Glo Kinase Assay, CDK1/CyclinA2; format: biochemical
Protocol: as §1, §2, §3, §4, §5, §6, §7

IC50 (CDK6/CyclinD3) [nM]	CDK1/CDK6 (CDK6/CyclinD3)	IC50 (CDK1/CyclinA2) [nM]	Compound
22.9	3.22	73.7	CC1=Nc2ccc(-c3nc(Nc4ccc(C5CCN(C)CC5)cn4)ncc3F)cc2C1(C)C [Example 37, 5-Fluoro-N-(5-(1-methylpiperidin-4-yl)pyridin-2-yl)-4-(2,3,3-trimethyl-3H-indol-5-yl)pyrimidine-2-amino]
16.2	–	–	CCN1CCN(c2ccc(Nc3ncc(F)c(-c4cc(F)c5c(c4)C4(CCCC4)C(C)=N5)n3)nc2)CC1 [Example 27, N-(5-(4-ethylpiperazin-1-yl)pyridin-2-yl)-5-fluoro-4-(7′-fluoro-2′-methylspiro [cyclopentane-1,3′-indol]-5′-yl)pyrimidine-2-amino]
5.13	21.75	–	CCC1(C)C(C)=Nc2ccc(-c3nc(Nc4ccc(N5CCN(C)CC5)cn4)ncc3F)cc21 (stereo not drawn) [Example 34, 4-(3-ethyl-2,3-dimethyl-3H-indol-5-yl)-5-fluoro-N-(5-(4-methylpiperazin-1-yl)pyridin-2-yl)pyrimidine-2-amino]
5.62	19.58	–	CCC1(C)C(C)=Nc2c(F)cc(-c3nc(Nc4ccc(C5CCNCC5)cn4)ncc3F)cc21 (stereo not drawn) [Example 11]
85.8	–	–	CCN1CCN(Cc2ccc(Nc3nccc(-c4cc(F)c5c(c4)C4(CCCC4)C(C)=N5)n3)nc2)CC1 [Example 8, N-(5-((4-ethylpiperazin-1-yl)methyl)pyridin-2-yl)-4-(7′-fluoro-2′-methylspiro [cyclopentane-1,3′-indol]-5′-yl)pyrimidine-2-amino]
5.65	6.82	38.5	CCC1(C)C(C)=Nc2c(F)cc(-c3nc(Nc4ccc5c(n4)CCN(C(=O)CO)C5)ncc3F)cc21 (stereo not drawn) [Example 39, 1-(2-((4-(3-Ethyl-7-fluoro-2,3-dimethyl-3H-indol-5-yl)-5-fluoropyrimidin-2-yl)amino)-7,8-dihydro-1,6-naphthyridine-6 (5H)-yl)-2-hydroxyacetamide]
0.9	298.78	269	CC1=Nc2c(F)cc(-c3nc(Nc4ccc(CN5CCN(C)CC5)cn4)ncc3F)cc2C12CCCC2 [Example 43, 5-Fluoro-4-(7′-fluoro-2′-methylspiro[cyclopentane-1,3′-indol]-5′-yl)-N-(5-((4-methylpiperazin-1-yl)methyl)pyridin-2-yl)pyrimidine-2-amino]
58.8	–	–	CC1=Nc2c(F)cc(-c3nc(Nc4ccc(C5CCN(C)CC5)cn4)ncc3F)cc2C1(C)C [Example 31, 5-Fluoro-4-(7-fluoro-2,3,3-trimethyl-3H-indol-5-yl)-N-(5-(1-methylpiperidin-4-yl)pyridin-2-yl)pyrimidine-2-amino]
2150	–	–	CCN1CCN(Cc2ccc(Nc3ncc(F)c(-c4cc(F)c5c(c4)C4(CCC4)C(C)=N5)n3)nc2)CC1 [Example 4, N-(5-((4-ethylpiperazin-1-yl)methyl)pyridin-2-yl)-5-fluoro-4-(7′-fluoro-2′-methylspiro[cyclobutane-1,3′-indol]-5′-yl)aminopyrimidine-2-amino]
2.33	–	–	CCC1(C)C(C)=Nc2c(F)cc(-c3nc(Nc4ccc(CN5CCN(C)CC5)cn4)ncc3F)cc21 (stereo not drawn) [Example 42, 4-(3-ethyl-7-fluoro-2,3-dimethyl-3H-indol-5-yl)-5-fluoro-N-(5-((4-methylpiperazin-1-yl)methyl)pyridin-2-yl)pyrimidine-2-amino]
159	–	–	CCN1CCN(Cc2ccc(Nc3ncc(F)c(-c4cc(F)c5c(c4)C(C)(C)C(C)=N5)n3)nc2)CC1 [Example 2, N-(5-((4-ethylpiperazin-1-yl)methyl)pyridin-2-yl)-5-fluoro-4-(7-fluoro-2,3,3-trimethyl-3H-indol-5-yl)pyrimidine-2-amino]
76.6	–	–	CC1=Nc2c(F)cc(-c3nc(Nc4ccc(N5CCN(CC6CC6)CC5)cn4)ncc3F)cc2C12CCCC2 [Example 41, N-(5-(4-(cyclopropylmethyl)piperazin-1-yl)pyridin-2-yl)-5-fluoro-4-(7′-fluoro-2′-methylspiro[cyclopentane-1,3′-indol]-5′-yl)pyrimidine-2-amino]
3.79	26.65	–	CCN1CCN(c2ccc(Nc3ncc(F)c(-c4ccc5c(c4)C(C)(CC)C(C)=N5)n3)nc2)CC1 (stereo not drawn) [Example 36, 4-(3-ethyl-2,3-dimethyl-3H-indol-5-yl)-N-(5-(4-ethylpiperazin-1-yl)pyridin-2-yl)-5-fluoropyrimidine-2-amino]

Second part, the molecule before the results:

Compound	IC50 (CDK6/CyclinD3) [nM]	CDK1/CDK6 (CDK6/CyclinD3)	IC50 (CDK1/CyclinA2) [nM]
CCN1CCN(c2ccc(Nc3ncc(F)c(-c4cc(F)c5c(c4)C(C)(CC)C(C)=N5)n3)nc2)CC1 (stereo not drawn) [Example 19, 4-(3-ethyl-7-fluoro-2,3-dimethyl-3H-indol-5-yl)-N-(5-(4-ethylpiperazin-1-yl)pyridin-2-yl)-5-fluoropyrimidine-2-amino]	65.5	0.99	–
CCC1(C)C(C)=Nc2ccc(-c3nc(Nc4ccc(C5CCNCC5)cn4)ncc3F)cc21 (stereo not drawn) [Example 33, 4-(3-ethyl-2,3-dimethyl-3H-indol-5-yl)-5-fluoro-N-(5-(piperidin-4-yl)pyridin-2-yl)pyrimidine-2-amino]	15.6	10.65	–
CCN1CCC(c2ccc(Nc3ncc(F)c(-c4ccc5c(c4)C4(CCCC4)C(C)=N5)n3)nc2)CC1 [Example 21, N-(5-(1-ethylpiperidin-4-yl)pyridin-2-yl)-5-fluoro-4-(2′-methylspiro[cyclopentane-1,3′-indol]-5′-yl)pyrimidine-2-amino]	27.7	4.89	135
CCC1(C)C(C)=Nc2ccc(-c3nc(Nc4ccc(C5CCN(C)CC5)cn4)ncc3F)cc21 (stereo not drawn) [Example 35, 4-(3-ethyl-2,3-dimethyl-3H-indol-5-yl)-5-fluoro-N-(5-(1-methylpiperidin-4-yl)-pyridin-2-yl)pyrimidine-2-amino]	8.74	7.33	64
CC1=Nc2ccc(-c3nc(Nc4ccc(C5CCN(C)CC5)cn4)ncc3F)cc2C12CCCC2 [Example 23]	4.53	11.10	50.3
CC1=Nc2c(F)cc(-c3nc(Nc4ccc(OC5CCN(C)CC5)cn4)ncc3F)cc2C12CCCC2 [Example 45, N-(5-((1-methylpiperidin-4-yl)oxy)-pyridin-2-yl)-5-fluoro-4-(7′-fluoro-2′-methylspiro[cyclopentane-1,3′-indol]-5′-yl)pyrimidine-2-amino]	43.9	–	–
CC1=Nc2c(F)cc(-c3nc(Nc4ccc5c(n4)CCN(C(=O)CO)C5)ncc3F)cc2C12CCCC2 [Example 40, 1-(2-((5-fluoro-4-(7′-fluoro-2′-methylspiro[cyclopentane-1,3′-indol]-5′-yl)pyrimidin-2-yl)amino)-7,8-dihydro-1,6-naphthyridine-6 (5H)-yl)-2-hydroxyacetamide]	25	6.47	162
CC1=Nc2c(F)cc(-c3nc(Nc4ccc(C5CCN(C)CC5)c(C)n4)ncc3F)cc2C12CCCC2 [Example 44, N-(5-(1-methylpiperidin-4-yl)-(6-methylpyridin)-2-yl)-5-fluoro-4-(7′-fluoro-2′-methylspiro[cyclopentane-1,3′-indol]-5′-yl)pyrimidine-2-amino]	37.5	–	–
CCC1(C)C(C)=Nc2ccc(-c3nc(Nc4ccc(N5CCNCC5)cn4)ncc3F)cc21 (stereo not drawn) [Example 32, 4-(3-ethyl-2,3-dimethyl-3H-indol-5-yl)-5-fluoro-N-(5-(piperazin-1-yl)pyridin-2-yl)pyrimidine-2-amino]	10.1	14.01	–
